Measured values taken from US8048862B2, “Macrocyclic inhibitors of hepatitis C virus replication” (priority 2008, dated 2011).

Assays:
[1] = test system: hepatitis C virus (HCV RNA levels), chronic hepatitis C genotype 1; experiment: ITMN-191 monotherapy, 14 days, effect on HCV viral load in patients; assay type: in vivo; details: for median reduction in HCV RNA levels at end of treatment (EOT) (Day 14): sodium salt oral
Procedure: The study was designed to provide the plasma pharmacokinetics (PK) of multiple ascending daily oral doses of ITMN-191 monotherapy and to evaluate the viral kinetics (VK) of multiple ascending daily oral doses of ITMN-191 monotherapy in patients, as measured by changes from Baseline in hepatitis C virus ribonucleic acid (HCV RNA) levels. The ITMN-191 was administered in the form of its sodium salt.
In Part A and Part B, up to six cohorts (treatment arms) of 10 patients each were planned. In Part A, up to five cohorts of 10 treatment-naïve patients per cohort were planned to receive multiple ascending doses of study drug. Patients within each of the five cohorts were randomly assigned 8:2 to receive either ITMN-191 or placebo for 14 days. In Part B, one cohort of non-responder (NR) patients (Cohort 6) was planned to receive a single dose level of study drug for 14 days. Patients in Cohort 6 were randomly assigned 8:2 to receive either ITMN-191 (8 patients) or placebo (2 patients).
The treatment period consisted of 14 days of blinded study drug. In Part A, optional Standard of Care (SOC) consisting of PEG-IFN-α plus ribivarin (RBV) therapy was provided to treatment-naïve patients 24 hours after the last dose on Day 14. In Part B, NR patients were not permitted to start any additional HCV therapy before Day 44.
Efficacy was evaluated by log10 reductions in HCV RNA levels and reductions in ALT values using the Efficacy-Evaluable Population, defined as those patients who received at least 90% of prescribed doses of assigned blinded study drug. Three patients in the treatment-naive 200 mg q12h cohort received less than the assigned randomized dose and were excluded from all efficacy analyses. The HCV RNA levels were determined by Roche COBAS Taqman HCV/HPS test, v2.0. This is a reverse transcriptase PCR method.
In Parts A and B, rebound, plateau, and continuous decline of virologic response profiles were defined based on the HCV RNA level at end of treatment (EOT) relative to the nadir HCV RNA level. […] The frequency of rebound for treatment-naïve patients (Part A) was higher in the 100 mg […] treatment arm (4 patients) than in the higher dose treatment arms (2 to 3 patients). The frequency of rebound for NR patients (Part B) was the same (2 patients) as for the treatment-naïve patients in the 100 mg q8h treatment arm. However, there were no statistically significant differences in ITMN-191 AUC, Cmax, or Cτ between rebound, plateau, and continual decline groups. At EOT, every patient classified as experiencing virologic rebound carried NS3 variants in which arginine at amino acid position 155 was replaced, at least in part, by lysine.

[2] = test system: hepatitis C virus (HCV RNA levels), chronic hepatitis C genotype 1; experiment: ITMN-191 combination therapy with SOC (PEG-IFN alfa-2a and ribavirin), 14 days, effect on HCV viral load in patients; assay type: in vivo; details: for HCV RNA (<43 IU/mL) (%): after 14 days of treatment; for median change in HCV RNA from baseline: 14 days of triple combination therapy
From the text: This is a double-blind, placebo-controlled, multicenter study in treatment-naïve patients with chronic hepatitis C genotype 1 infection. All patients receive standard of care (SOC) treatment with PEG-IFN alfa-2a and weight-based ribavirin in accordance with the product labeling. In addition to this standard of care treatment, patients are randomized to receive either ITMN-191 or matching placebo, administered in the fed state, for 14 complete days, and a single dose on Day 15. PEG-IFN alfa-2a and ribavirin is provided from Day 0 and following the completion of study drug treatment on Day 15 through Day 44. No other HCV therapies are permitted prior to Day 44. All patients receive SOC and then are administered a pill containing either ITMN-191 or placebo. The ITMN-191 was administered in the form of its sodium salt.
Patients are admitted to a research facility and initiate PEG-IFN alfa-2a and ribavirin on Day O, Study drug (ITMN-191 or placebo) administration begins on Day 1 and continues to the morning of Day 15, and patients are discharged from the research facility on Day 16. Meals and activity levels are standardized across research facilities. Patients are contacted by telephone on Day 21 and return to the research facility for the Safety Follow-up Visit on Day 28 and the End of Study Visit on Day 44.
Over the course of the study, blood samples are obtained for clinical laboratory analysis and for PK (pharmokinetics) and VK (viral kinetics). In addition, blood samples to assess VR (viral rebound) are obtained. To monitor potential cardiac toxicity, cardiac troponin are assessed every day during the treatment period.
End of treatment (EOT) and nadir HCV RNA levels were used to define virologic rebound, continual decline, and plateau response patterns. NS3 protease domain was amplified and population sequenced by nested reverse transcription polymerase chain reaction (RT-PCR). Amplicons were cloned into a novel NS3 phenotyping vector and this plasmid used for clonal sequencing. The HCV RNA levels were determined by Roche COBAS Taqman HCV/HPS test, v2.0. This is a reverse transcriptase PCR method.

[3] = NR (nonresponder) patients, 300 mg q8h, 14 days
[4] = all ITMN-191 treated patients, Parts A and B, monotherapy 14 days
[5] = treatment-naïve patients, 200 mg q8h, 14 days
[6] = treatment-naïve patients, 200 mg q12h, 14 days
[7] = any combination therapy cohort, 14 days

Structure (SMILES): CC(C)(C)OC(=O)N[C@H]1CCCCC/C=C\[C@@H]2C[C@@]2(C(=O)NS(=O)(=O)C2CC2)NC(=O)[C@@H]2C[C@@H](OC(=O)N3Cc4cccc(F)c4C3)CN2C1=O [ITMN-191]
- median ALT decline from Baseline at EOT [1, 3]: −34.5 U/L
- median maximum reduction in HCV RNA levels [1, 3]: −2.93 log10 IU/mL
- median reduction in HCV RNA at EOT [1, 3]: −2.46 log10 IU/mL
- frequency of rebound ([1]; NR patients (Part B)): 2 patients
- patients experiencing continual decline in HCV RNA level [1, 4]: 14/40
- patients experiencing plateau [1, 4]: 12/40
- median maximum post-Baseline change in HCV RNA ([1]; single NR cohort (Part B), 300 mg q12h dose as printed in the conclusions): −2.93 log10 IU/mL
- frequency of rebound ([1]; treatment-naïve patients, 100 mg q2h treatment arm): 4 patients
- frequency of rebound ([1]; treatment-naïve patients, 100 mg q8h treatment arm): 2 patients
- median EOT reduction of ALT [1, 5]: −37.5 U/L
- median maximum reduction in HCV RNA levels [1, 5]: −3.90 log10 IU/mL
- median reduction in HCV RNA levels at end of treatment (EOT) (Day 14) [1, 5]: −3.76 log10 IU/mL
- median maximum reduction in HCV RNA levels [1, 6]: −3.17 log10 IU/mL
- median reduction in HCV RNA levels at end of treatment (EOT) (Day 14) [1, 6]: −3.12 log10 IU/mL
- HCV RNA (<43 IU/mL) (%) ([2]; 100 mg q8h (300 mg) and SOC): 75%
- Median Change Log10 (IU/mL) HCV RNA at EOT ([2]; 100 mg q8h (300 mg) in combination with SOC, 14 days): −5.5 Log10 (IU/mL)
- HCV RNA (<43 IU/mL) (%) ([2]; 200 mg q8h (600 mg) and SOC): 88%
- Median Change Log10 (IU/mL) HCV RNA at EOT ([2]; 200 mg q8h (600 mg) in combination with SOC, 14 days): −5.7 Log10 (IU/mL)
- Median Change Log10 (IU/mL) HCV RNA at EOT ([2]; 300 mg q8h (900 mg) in combination with SOC, 14 days): −5.6 Log10 (IU/mL)
- Median Change Log10 (IU/mL) HCV RNA at EOT ([2]; 400 mg q12h (800 mg) in combination with SOC, 14 days): −4.7 Log10 (IU/mL)
- Median Change Log10 (IU/mL) HCV RNA at EOT ([2]; 600 mg q12h (1200 mg) in combination with SOC, 14 days): −5.4 Log10 (IU/mL)
- Median Change Log10 (IU/mL) HCV RNA at EOT ([2]; 900 mg q12h (1800 mg) in combination with SOC, 14 days): −5.5 Log10 (IU/mL)
- patients with HCV RNA below the limit of quantification (<25 IU/mL) ([2]; all doses and intervals (32 of 45 patients), combination with SOC, 14 days): 71%
- patients with HCV RNA levels below 9.3 IU/mL [2, 7]: at least 13%
- patients with HCV RNA levels below 25 IU/mL [2, 7]: at least 57%
- median change in HCV RNA from baseline ([2]; best performing q8h cohort): −5.7 log
- median change in HCV RNA from baseline ([2]; best performing q12h cohort): −5.5 log
- median change in HCV RNA from baseline ([2]; five of the six cohorts): exceeded 5 logs
